Experimental data taken from article PMC9841524, “Structure-Based Rational Design of Small α-Helical Peptides with Broad-Spectrum Activity against Multidrug-Resistant Pathogens” (Journal of Medicinal Chemistry, 2022).
Like-named read-outs stand apart in the source and are kept apart here. Where no end group is shown, it is not given here.

What was measured:
S. aureus (ATCC 29213) = test: MIC, standard microtiter dilution (CLSI); format: cell-based; settings: broth microdilution (CLSI), CAMHB, 37 °C, 24 h
Procedure: (§1) Description of the characteristics and growth conditions of various bacterial strains used in the study are provided in the Supporting Information (Table S3). Antibacterial susceptibility testing was carried out using a standard microtiter dilution method recommended by the clinical and laboratory standard institute (CLSI) and measured as a minimum inhibitory concentration (MIC), the lowest peptide concentration that inhibited bacterial growth. Briefly, the overnight grown cultures in the recommended broth for each bacterial strain were diluted in cation-adjusted Mueller Hinton Broth (CAMHB) to give an inoculum of 10^6 colony-forming units (CFU)/mL. A 2-fold serially diluted test peptide solution (100 μL) was added to the microtiter plates. After adding bacterial suspension (100 μL), the plates were incubated at 37 °C for 24 h, and the MICs were determined. The same protocol was used to determine the MICs in the presence of salts and serum except using the media supplemented with various cationic salts (150 mM NaCl, 4.5 mM KCl, 6 mM NH4Cl, 1 mM MgCl2, and 2 mM CaCl2) or 25% FBS. The data was acquired from three independent assays performed in triplicate.
(§2) The bacterial strains employed in this study were obtained from the American Type Culture Collection (ATCC). Each strain was propagated as recommended by the ATCC, and each strain was stored as a frozen glycerol stock at -80°C. A bacterial colony was grown on the appropriate agar as indicated in Table S1 and was used to inoculate the appropriate broth. The culture was incubated at the appropriate conditions, as mentioned in Table S1. Following the incubation, the culture was diluted to an optical density 625 nm (OD625) of 0.1 in cation adjusted Mueller Hinton Broth (CAMHB), which is equivalent to 1 × 10^8 CFU/mL. The culture was further diluted to 1 × 10^6 CFU/mL, which was used to conduct the MIC determination assay. For the S. pneumoniae strains, CAMHB + 2.5% lysed horse blood was required for the assay. The strains with their […]
(§3) Table S3. Description of the characteristics and growth conditions of various bacterial strains

E. coli (ATCC 25922) = settings: broth microdilution (CLSI), CAMHB, 37 °C, 24 h
Procedure: as §1, §2, §3

MRSA (ATCC BAA-1556) = settings: broth microdilution (CLSI), CAMHB, 37 °C, 24 h
Procedure: as §1, §2, §3

[1] = tested on: P. aeruginosa (ATCC 27883); test: MIC, standard microtiter dilution (CLSI); format: cell-based, Pseudomonas aeruginosa; settings: broth microdilution (CLSI), CAMHB, 37 °C, 24 h
Procedure: as §1, §2, §3

[2] = tested on: K. pneumoniae (ATCCBAA-1705); test: MIC, standard microtiter dilution (CLSI); format: cell-based, Klebsiella pneumoniae; settings: broth microdilution (CLSI), CAMHB, 37 °C, 24 h
Procedure: as §1, §2, §3

[3] = tested on: human red blood cells (hRBCs); test: Hemolytic assay; format: cell-based; settings: 2 h, 37 °C
Procedure: The hemolytic activity of all peptides (1a–8d) was determined using hRBC. The assay was conducted by adding 75 μL of 2-fold serially diluted peptides to 75 μL of hRBC suspension (4% in PBS). The plates were incubated for 2 h at 37 °C without agitation. In order to determine the hemolysis at each tested concentration of peptides, the plate was centrifuged, and 100 μL of the supernatant was transferred to another 96-well plate to determine hemoglobin release spectrophotometrically at 567 nm. Percent hemolysis was calculated by the following formula [drawing 1] where A represents the absorbance of the peptide sample at 567 nm and A0 and At represent zero percent and 100% hemolysis determined in phosphate buffer saline and 1% Triton X-100, respectively.

[4] = 10^6 CFU/mL, highest MIC of three independent experiments in triplicate
[5] = hRBC suspension 4% in PBS, hemoglobin release at 567 nm, 1% Triton X-100 = 100%
[6] = value in parentheses (μM), hRBC 4% in PBS, 567 nm

Substance | MIC, S. aureus (ATCC 29213) (S. aureus (ATCC 29213); [4]) [µg/mL] | MIC, S. aureus (ATCC 29213) (S. aureus (ATCC 29213); value in parentheses (μM)) [µM] | MIC, E. coli (ATCC 25922) (E. coli (ATCC 25922); [4]) [µg/mL] | MIC, E. coli (ATCC 25922) (E. coli (ATCC 25922); value in parentheses (μM)) [µM] | MIC, MRSA (ATCC BAA-1556) (MRSA (ATCC BAA-1556); [4]) [µg/mL] | MIC, MRSA (ATCC BAA-1556) (MRSA (ATCC BAA-1556); value in parentheses (μM)) [µM] | MIC, P. aeruginosa (ATCC 27883) [1, 4] [µg/mL] | MIC, P. aeruginosa (ATCC 27883) ([1]; value in parentheses (μM)) [µM] | MIC, K. pneumoniae (ATCCBAA-1705) [2, 4] [µg/mL] | MIC, K. pneumoniae (ATCCBAA-1705) ([2]; value in parentheses (μM)) [µM] | HC50 (concentration at which 50% hemolysis was observed) [3, 5] [µg/mL] | HC50 (concentration at which 50% hemolysis was observed) [3, 6] [µM]
Ac-RWLRRWLRWWR-NH2 [5f] | 12.5 | 6.90 | 50 | 27.61 | 12.5 | 6.90 | 25 | 13.80 | 50 | 27.61 | 65 | 35.89
H-RAWRRWARAW-NH2 [4d] | > 100 | > 70.74 | > 100 | > 70.74 | > 100 | > 70.74 | > 100 | > 70.74 | > 100 | > 70.74 | > 500 | > 353.69
RWARRWWRA-NH2 [3c] | > 100 | > 74.48 | > 100 | > 74.48 | > 100 | > 74.48 | > 100 | > 74.48 | > 100 | > 74.48 | > 500 | > 372.42
ARRWWRRW-NH2 [2e] | 100 | 78.65 | > 100 | > 78.65 | 100 | > 78.65 | > 100 | > 78.65 | > 100 | > 78.65 | > 500 | > 393.23
RRWWRRW-NH2 [1b] | 50 | 41.65 | > 100 | > 83.30 | 100 | 83.30 | > 100 | > 83.30 | > 100 | > 83.30 | > 500 | > 416.52
